Values quoted from earlier work as cited in patent US20050070607A1, “N-acetylcysteine compositions and methods for the treatment and prevention of cysteine/glutathione deficiency in diseases and conditions” (priority 2003, published 2005).

Tests used:
[1] = test system: Cystic Fibrosis (CF); settings: air trapping and FEV1; NAC or Ambroxol 200 mg 3 times daily; n 36; 12 weeks; Ratjen 1985[274]
[2] = test system: human atherosclerosis; settings: brachial artery flow-mediated dilation; 4.5 g OTC po; n 48; 4 hours; Vita 1998[15]
[3] = test system: HIV infected individuals; settings: whole blood GSH; OTC 1500-3000 mg/day po; n 37; 4 weeks; Barditch-Crovo 1998[283]
[4] = test system: acute lung injury; settings: RBC GSH, days of acute lung injury, cardiac index; NAC 70 mg/kg q 8 hr IV; OTZ 63 mg/kg q 8 hr IV; n 48; 10 days; Bernard 1997[222]
[5] = test system: chronic renal failure; settings: regular users consuming >=1.4 g/day on average, absence of aspirin use; Fored[184]
[6] = test system: cochlea

**Q.** Which Beneficial effects [1] does the source give for `Nc1c(Br)cc(Br)cc1CN[C@H]1CC[C@H](O)CC1` [Ambroxol] here?
**A.** Beneficial

**Q.** For `O=C1N[C@H](C(=O)O)CS1` [OTC, L-2-oxothiazolidine-4-carboxylic acid], which Beneficial effects [2] is on record?
**A.** Beneficial

**Q.** And the Beneficial effects [3]?
**A.** Beneficial

**Q.** For `O=C1N[C@H](C(=O)O)CS1` [OTZ], which Beneficial effects [4] is on record?
**A.** Beneficial

**Q.** For `CC(=O)Nc1ccc(O)cc1` [acetaminophen], which “relative risk of chronic renal failure” value [5] is on record?
**A.** 5.3

**Q.** Which “Hearing loss and cochlear damage from aminoglycoside antibiotics and cisplatin” value ([6]; animal models [245-247]) does the source give for `CSCC[C@H](N)C(=O)O` [methionine] here?
**A.** greatly reduced

**Q.** What about the “permanent cochlear damage due to acute acoustic overexposure” value ([6]; animal models, systemic administration [246,248]) of the same compound?
**A.** almost completely prevented
